In US6518423B1, “Benzopiperidine derivatives” (Eisai Co., Ltd., priority 1996, dated 2003):

| melting point | Compound |
| --- | --- |
| 218 to 219 °C | O=Cc1nccn1Cc1ccc2c(c1)Nc1nccnc1S2 |
| 280 °C (dec.) | C/C(=C\c1ncn(Cc2ccc3c(c2)Nc2nccnc2S3)c1C)C(N)=O |
| 187 to 189 °C | NS(=O)(=O)NCCc1cn(Cc2ccc3c(c2)Nc2nccnc2S3)cn1 |
| 247 to 250 °C | OCc1nccn1Cc1ccc2c(c1)Nc1nccnc1S2 |
| 178 to 182 °C | Cc1ncn(Cc2ccc3c(c2)Nc2nccnc2S3)c1C(C)O (stereo not shown) |
| 269 to 271 °C | O=c1ccn(Cc2ccc3c(c2)Nc2nccnc2S3)c(=O)[nH]1 |
| 202 to 204 °C | c1cnc2c(c1)ccn2Cc1ccc2c(c1)Nc1nccnc1S2 |
| 210 to 214 °C | c1cc2ccnc-2n(Cc2ccc3c(c2)Nc2nccnc2S3)c1 |
| 251 to 258 °C | c1ccc2c(c1)nnn2Cc1ccc2c(c1)Nc1nccnc1S2 |
| 265 °C (dec.) | c1cnc2ncn(Cc3ccc4c(c3)Nc3nccnc3S4)c2c1 |
| 223 to 226 °C | c1cnc2c(n1)Nc1cc(Cn3cncn3)ccc1S2 |
| > 275 °C | C(=C\c1ccc2c(c1)Nc1nccnc1S2)/c1ccncc1 |
| 218 to 221 °C | OC(c1cncnc1)c1ccc2c(c1)Nc1nccnc1S2 (stereo not shown) |
| 105 to 107 °C | OC(c1ccc2c(c1)Nc1nccnc1S2)c1ncccn1 (stereo not shown) |
| 221 to 223 °C | OC(c1ccc(Br)nc1)c1ccc2c(c1)Nc1nccnc1S2 (stereo not shown) |
| 160 to 170 °C (dec.) | CCOC(=O)/C=C/c1cccc(C(O)c2ccc3c(c2)Nc2nccnc2S3)n1 (stereo not shown) |
| 183 to 186 °C | c1ccc(NCc2ccc3c(c2)Nc2nccnc2S3)cc1 |
| 217 to 220 °C | O=C(O)C1CCC(CNCc2ccc3c(c2)Nc2nccnc2S3)CC1 (stereo not shown) |
| 200 to 202 °C | CN(CCCC(C)(C)C(=O)O)Cc1ccc2c(c1)Nc1nccnc1S2 |
| 143 to 146 °C | CNS(=O)(=O)CCN(C)Cc1ccc2c(c1)Nc1nccnc1S2 |
| 249 to 253 °C (dec.) | O=C(NCc1ccc2c(c1)Nc1nccnc1S2)c1ccncc1 |
| 320 to 322 °C | O=C(Nc1nccs1)c1ccc2c(c1)Nc1nccnc1S2 |
| 265 to 268 °C | CN(C)c1ncnc2ncn(Cc3ccc4c(c3)Nc3nccnc3S4)c12 |
| > 275 °C | O=c1[nH]cnc2ncn(Cc3ccc4c(c3)Nc3nccnc3S4)c12 |
| 191 to 193 °C | Cc1nc2cncnc2n1Cc1ccc2c(c1)Nc1nccnc1S2 |
| > 275 °C | CCc1ncnc2ncn(Cc3ccc4c(c3)Nc3nccnc3S4)c12 |

| melting point | Compound |
| --- | --- |
| 158 to 161 °C | CN(C)C(=O)/N=C(\N)Cc1ccc2c(c1)Nc1nccnc1S2 |
| 174 to 175 °C | Cl.N=C(Cc1ccc2c(c1)Nc1nccnc1S2)NCCO |
| 153 to 155 °C (dec.) | Cl.c1ccc(CN2CCCN=C2Cc2ccc3c(c2)Nc2nccnc2S3)cc1 |
| 195 to 196 °C | N#C/N=C(/Cc1ccc2c(c1)Nc1nccnc1S2)NCc1ccccn1 |
| 241 to 245 °C | N#CN=C(Cc1ccc2c(c1)Nc1nccnc1S2)NCc1ccc(S(N)(=O)=O)cc1 |
| 253 to 256 °C | N#CN=C(Cc1ccc2c(c1)Nc1nccnc1S2)NO |
| 172 to 174 °C | CONC(Cc1ccc2c(c1)Nc1nccnc1S2)=NC#N |
| 217 to 218 °C (dec.) | N#CN=C(Cc1ccc2c(c1)Nc1nccnc1S2)NCCCC(=O)O |
| 175 to 176 °C | CS(=O)(=O)/N=C/NCc1ccc2c(c1)Nc1nccnc1S2 |
| 187 to 189 °C | OCc1ccc2c(c1)Nc1nccnc1S2 |
| 161 to 162 °C | ClCc1ccc2c(c1)Nc1nccnc1S2 |
| 188 to 191 °C | c1ccc2c(c1)CCN(Cc1ccc3c(c1)Nc1nccnc1S3)C2 |
| 130 to 134 °C | O=C(O)CCN1CCC(NCc2ccc3c(c2)Nc2nccnc2S3)CC1 |
| 152 to 154 °C | O=C(O)Cc1ccccc1C1CCN(Cc2ccc3c(c2)Nc2nccnc2S3)CC1 |
| > 297 °C | O=C(O)C1(c2ccccc2)CCN(Cc2ccc3c(c2)Nc2nccnc2S3)CC1 |
| 98 to 105 °C | O=C(O)Cc1cc2c(s1)CN(Cc1ccc3c(c1)Nc1nccnc1S3)CC2 |
| 230 to 235 °C | c1csc(NCc2ccc3c(c2)Nc2nccnc2S3)n1 |
| 174 to 176 °C | c1cc(CNCc2ccc3c(c2)Nc2nccnc2S3)ccn1 |
| 179 to 182 °C | c1ccc(CCNCc2ccc3c(c2)Nc2nccnc2S3)nc1 |
| 158 to 161 °C | FC(F)(F)c1cnc(NCc2ccc3c(c2)Nc2nccnc2S3)c(Cl)c1 |
| 140 to 148 °C | COC(=O)c1ccc(NCc2ccc3c(c2)Nc2nccnc2S3)nc1 |
| 225 to 228 °C | Nc1ncccc1NCc1ccc2c(c1)Nc1nccnc1S2 |
| 230 to 235 °C | CCOC(=O)COc1ccc(NCc2ccc3c(c2)Nc2nccnc2S3)cn1 |
| 105 to 108 °C | CCOC(=O)CCCCCOc1ccc(NCc2ccc3c(c2)Nc2nccnc2S3)cn1 |
| 212 to 214 °C | CC(=O)N(Cc1ccc2c(c1)Nc1nccnc1S2)c1cccnc1 |
| 208 to 210 °C | O=C(Nc1ccccc1)N(Cc1ccc2c(c1)Nc1nccnc1S2)c1cccnc1 |

The next lines start with the molecule.

| Compound | melting point |
| --- | --- |
| c1cn(Cc2ccc3c(c2)Nc2nccnc2O3)cn1 | 252 to 255 °C |
| O=C(O)CC1(O)C2CCCCCC1CN(Cc1ccc3c(c1)Nc1nccnc1S3)C2 (stereo not shown) | 217 to 218 °C (dec.) |
| OCCC1C2CCCC1CN(Cc1ccc3c(c1)Nc1nccnc1S3)C2 (stereo not shown) | 123 to 127 °C |
| CN(C)S(=O)(=O)NCC1C2CCCC1CN(Cc1ccc3c(c1)Nc1nccnc1S3)C2 (stereo not shown) | 215 to 219 °C |
| CC(C)(CO)C1C2CCCC1CN(Cc1ccc3c(c1)Nc1nccnc1S3)C2 (stereo not shown) | 181 to 183 °C |
| CC1CC(C)CN(c2ncnc3c2ncn3Cc2ccc3c(c2)Nc2nccnc2S3)C1 (stereo not shown) | 237 to 238 °C |
| NCCN1CCN(c2ncnc3c2ncn3Cc2ccc3c(c2)Nc2nccnc2S3)CC1 | 226 to 229 °C |
| c1cnc2c(n1)Nc1cc(Cn3cnc4ncnc(N5CCOCC5)c43)ccc1S2 | 269 to 273 °C |
| O=C(O)CCCCCCCCCCSc1ncnc2c1ncn2Cc1ccc2c(c1)Nc1nccnc1S2 | 154 to 156 °C |
| Cl.c1cnc2c(n1)Nc1cc(CC3=NCCCN3)ccc1S2 | > 280 °C |
| N=C(Cc1ccc2c(c1)Nc1nccnc1S2)N1CCC(O)CC1 | 265 to 267 °C |
| CC(CCC1CCN(C(=N)Cc2ccc3c(c2)Nc2nccnc2S3)CC1)C(=O)O.Cl (stereo not shown) | 166 to 171 °C |
| COC(=O)CC1C2CCCC1CN(Cc1ccc3c(c1)N(C(=O)OC)c1nccnc1S3)C2 (stereo not shown) | 106 to 108 °C |
| O=S(=O)(NC1CCN(Cc2ccc3c(c2)Nc2nccnc2S3)CC1)c1ccccc1 | 157 to 158 °C |
| O=C1CCC2(CCN(Cc3ccc4c(c3)Nc3nccnc3S4)CC2)O1 | 199 to 203 °C |
| OCCC1CCN(Cc2ccc3c(c2)Nc2nccnc2S3)CC1 | 148 to 152 °C |
| c1cc2c(cn1)Sc1ccc(CN3CCCCC3)cc1N2 | 163 to 166 °C |
| N#CC1CCN(Cc2ccc3c(c2)Nc2nccnc2S3)CC1 | 198 to 199 °C |
| CN(C)S(=O)(=O)NC1CCN(Cc2ccc3c(c2)Sc2nccnc2N3)CC1 | 172 to 173 °C |
| O=S(=O)(NCCO)NC1CCN(Cc2ccc3c(c2)Nc2nccnc2S3)CC1 | 164 to 166 °C |
| O=C1CC2(CCN(Cc3ccc4c(c3)Nc3nccnc3S4)CC2)CO1 | 180 to 182 °C |
| O=C1CC2(CCN(Cc3ccc4c(c3)Nc3nccnc3S4)CC2)CN1 | 211 to 212 °C |
| CN(C)S(=O)(=O)NC1CCN(Cc2cnc3c(c2)Nc2nccnc2S3)CC1 | 205 to 210 °C |
| NS(=O)(=O)N1CCN(Cc2ccc3c(c2)Nc2nccnc2S3)CC1 | 215 to 217 °C (dec.) |
| N=C(NC1CCN(Cc2ccc3c(c2)Nc2nccnc2S3)CC1)C(=O)O | 186 to 190 °C |
| CS(=O)(=O)NCC1CCN(Cc2ccc3c(c2)Nc2nccnc2S3)CC1 | 218 to 221 °C |

| Compound | melting point |
| --- | --- |
| CS(=O)(=O)NCC1CN(Cc2ccc3c(c2)Nc2nccnc2S3)C1 | 84 to 88 °C |
| CN1C2CCC1CC(NC(=O)CC1CC3(CCN(Cc4ccc5c(c4)Nc4nccnc4S5)CC3)C1)C2 (stereo not shown) | 181 to 184 °C |
| CN(C)c1c(N2CCN(Cc3ccc4c(c3)Nc3nccnc3S4)CC2)c(=O)c1=O | 296 to 300 °C (dec.) |
| CS(=O)(=O)N1CCCN(Cc2ccc3c(c2)Nc2nccnc2S3)CC1 | 158 to 160 °C |
| CC(=NC#N)N1CCN(Cc2ccc3c(c2)Nc2nccnc2S3)CC1 | 234 °C (dec.) |
| c1cnc2c(n1)Nc1cc(CN3CCCCCCC3)ccc1S2 | 133 to 135 °C |
| O=S(=O)(CCC1CCN(Cc2ccc3c(c2)Nc2nccnc2S3)CC1)N1CCOCC1 | 193 to 194 °C |
| C/C(=C\C(=O)O)C1CCN(Cc2ccc3c(c2)Nc2nccnc2S3)CC1 | 207 to 209 °C |
| O=C(O)/C=C1\CCCN(Cc2ccc3c(c2)Nc2nccnc2S3)C1 | 200 to 203 °C |
| CC(CCC1CCN(CC(O)c2ccc3c(c2)Nc2nccnc2S3)CC1)C(=O)O (stereo not shown) | 239 to 242 °C |
| C/C(=C\C(=O)O)CC1CCN(Cc2ccc3c(c2)Nc2nccnc2S3)CC1 | 126 to 130 °C |
| O=C(O)C=C1CCN(Cc2ccc3c(c2)Nc2nccnc2S3)CC1 | 214 to 216 °C |
| CC(CCC1CCN(C(=O)Cc2ccc3c(c2)Nc2nccnc2S3)CC1)C(=O)O (stereo not shown) | 84 to 89 °C |
| CN1c2ccccc2Nc2nccnc21 | 229 to 231 °C |
| COc1ccc2c(c1)Nc1nccnc1N2C | 198 to 201 °C |
| Cl.Oc1ccc2c(c1)Nc1nccnc1N2 | > 275 °C |
| COCc1ccc2c(c1)Nc1nccnc1N2C | 169 to 172 °C |
| CN1c2ccc(C(O)c3nccs3)cc2Nc2nccnc21 (stereo not shown) | 203 to 204 °C |
| CC(CCC1C2CCCC1CN(Cc1ccc3c(c1)Nc1nccnc1S3)C2)C(=O)O (stereo not shown) | 104 to 108 °C |
| OCCN1c2ccccc2Nc2nccnc21 | 197 to 204 °C |
| OCCCCN1c2ccccc2Nc2nccnc21 | 138 to 139 °C |
| NC(=O)NCCN1c2ccccc2Nc2nccnc21 | 231 to 233 °C |
| CN1c2ccc(C#CC(=O)O)cc2Nc2nccnc21 | > 275 °C |
| CN(C)CC#Cc1ccc2c(c1)Nc1nccnc1N2C | 188 to 189 °C |
| CC12CCCC(C)(CN(Cc3ccc4c(c3)Nc3nccnc3S4)C1)C2CC(=O)O (stereo not shown) | 226 to 229 °C |
